Results reported in patent US12173322B2, “Genome-edited induced pluripotent stem cells, and cells derived therefrom, and uses thereof” (priority 2020, dated 2024).
Read-outs that look alike come from different tables or passages of the source.

Molecular target: T1, hKir2.1 (Homo sapiens, UniProt P63252)
T1 construct: Eurofins
T1 sequence (P63252 1-427): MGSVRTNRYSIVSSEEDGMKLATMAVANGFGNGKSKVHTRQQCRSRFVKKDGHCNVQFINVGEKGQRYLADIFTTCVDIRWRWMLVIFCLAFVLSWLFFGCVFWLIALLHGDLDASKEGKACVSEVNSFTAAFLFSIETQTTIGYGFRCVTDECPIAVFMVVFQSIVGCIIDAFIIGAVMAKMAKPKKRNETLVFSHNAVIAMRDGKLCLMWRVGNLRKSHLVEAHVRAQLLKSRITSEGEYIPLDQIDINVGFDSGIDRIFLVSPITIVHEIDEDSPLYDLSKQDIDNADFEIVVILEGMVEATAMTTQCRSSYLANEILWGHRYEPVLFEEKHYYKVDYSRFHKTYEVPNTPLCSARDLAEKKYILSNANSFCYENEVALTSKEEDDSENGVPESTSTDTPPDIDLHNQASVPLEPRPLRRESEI
Experiment: Patch clamp electrophysiology (QPatch CiPA), hKir2.1
Assay type: cell-based
Conditions: for IC50: Antagonist, read-out: Estimated IC50
Description: Replated hiPSC-CMs were loaded with a fluorescent calcium dye and calcium transients were recorded before and after peptide addition.

For `[Ba+2].[Cl-].[Cl-]` [Barium, Barium Chloride], the IC50 (End) was 3.6 µM, the IC50 (Peak) was 62.3 µM and the “% inhibition mean” value (End, 0.3 μM) was 7.01%. The “% inhibition n1” value (End, 0.3 μM) was 6.49%, the “% inhibition n2” value (End, 0.3 μM) was 7.53% and the “% inhibition mean” value (End, 1 μM) was 18.29%. The “% inhibition n1” value (End, 1 μM) was 19.93%, the “% inhibition n2” value (End, 1 μM) was 16.65% and the “% inhibition mean” value (End, 3 μM) was 41.38%. For the same compound, the “% inhibition n1” value (End, 3 μM) was 39.87%, the “% inhibition n2” value (End, 3 μM) was 42.88% and the “% inhibition mean” value (End, 10 μM) was 80.72%. The “% inhibition n1” value (End, 10 μM) was 79.79%, the “% inhibition n2” value (End, 10 μM) was 81.66% and the “% inhibition mean” value (End, 30 μM) was 93.28%. For the same compound, the “% inhibition n1” value (End, 30 μM) was 93.64%, the “% inhibition n2” value (End, 30 μM) was 92.93% and the “% inhibition mean” value (End, 100 μM) was 98.46%. The “% inhibition n1” value (End, 100 μM) was 98.46%, the “% inhibition n2” value (End, 100 μM) was 98.47% and the “% inhibition mean” value (Peak, 0.3 μM) was 2.37%. The “% inhibition n1” value (Peak, 0.3 μM) was 1.78%, the “% inhibition n2” value (Peak, 0.3 μM) was 2.96% and the “% inhibition mean” value (Peak, 1 μM) was 6.45%. The “% inhibition n1” value (Peak, 1 μM) was 7.99%, the “% inhibition n2” value (Peak, 1 μM) was 4.90% and the “% inhibition mean” value (Peak, 3 μM) was 12.57%. The “% inhibition n1” value (Peak, 3 μM) was 14.88%, the “% inhibition n2” value (Peak, 3 μM) was 10.25% and the “% inhibition mean” value (Peak, 10 μM) was 13.31%. The “% inhibition n1” value (Peak, 10 μM) was 16.68%, the “% inhibition n2” value (Peak, 10 μM) was 9.94% and the “% inhibition mean” value (Peak, 30 μM) was 31.99%. The “% inhibition n1” value (Peak, 30 μM) was 38.78%, the “% inhibition n2” value (Peak, 30 μM) was 25.19% and the “% inhibition mean” value (Peak, 100 μM) was 62.64%. The “% inhibition n1” value (Peak, 100 μM) was 63.60% and the “% inhibition n2” value (Peak, 100 μM) was 61.68%.
